US8865750B2, “Small molecule inhibitors of RGS proteins” (The Regents of The University of Michigan, priority 2011, dated 2014)
Read-outs that look alike come from different tables or passages of the source.

Legend:
RGS4 = assay: FCPIA: Gαo binding to RGS4; settings: for RGS4 Hill Slope: Table 3; for activity at RGS4: FCPIA; for IC50: read-out: RGS4 IC50
Excerpt: (§1) FCPIA Dose Response and Reversibility Experiments:

RGS8 = RGS8 (Homo sapiens (Human), UniProt P57771); assay: FCPIA: Gαo binding to RGS8; settings: for RGS8 Hill Slope: Table 3; for IC50: read-out: RGS8 IC50
Sequence of RGS8 (P57771 other isoform, or with tags, fused parts or gaps): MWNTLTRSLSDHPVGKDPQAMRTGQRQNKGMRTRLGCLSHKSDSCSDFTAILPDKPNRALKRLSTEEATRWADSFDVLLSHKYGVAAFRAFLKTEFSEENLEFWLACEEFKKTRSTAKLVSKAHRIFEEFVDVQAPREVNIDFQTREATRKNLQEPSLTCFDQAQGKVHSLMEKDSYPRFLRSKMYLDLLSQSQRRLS
Excerpt: as §1

HEK293 cells = assay: Calcium mobilization induced by compound alone; type: cell-based; settings: Homo sapiens, HEK293; read-out: Calcium transient (% 50014);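 further: percent of response to 10 µM reference CCG-50014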
Protocol: Calcium Mobilization Experiments:
A stable cell line was developed based upon the HEK-293 Flp-In TREx cell line (Invitrogen, Carlsbad, Calif.) that stably express the muscarinic M3 receptor and have human RGS4 expression under doxycycline control. Cells were maintained in DMEM supplemented with 10% fetal bovine serum and Penicillin (100 units/ml)-Streptomycin (100 μg/ml) under 5% CO2 at 37° C. For experiments, cells were split into 96-well black, clear bottom, poly-D-lysine coated microtiter plates (Nunc, Cat. #152037) at a density of 20,000 cells/well in DMEM containing 10% fetal bovine serum and Penicillin (100 units/ml), Streptomycin (100 μg/ml). RGS4 expression was induced by supplementing the medium with 1 μg/mL doxycycline for 24-48 hours before experimentation. Cells were loaded with Fluo-4 No Wash dye in buffer for 30 minutes at 37° C. Compounds and/or carbachol were added to the wells and the fluorescence intensity was measured using a FlexStation (Molecular Devices, Sunnyvale, Calif.) plate reader. Data analysis was performed by calculating the area under the curve or maximal fluorescence intensity from a 120 second kinetic measurement.

[1] = Table 3, duplex FCPIA, average of two experiments
[2] = Table 2, mean of two independent FCPIA experiments

Compound: CN(C)c1ccc(-n2sc(=O)n(Cc3ccc(F)cc3)c2=O)cc1 [S2, 2-(4-dimethylaminophenyl)-4-(4-fluorobenzyl)-1,2,4-thiadiazolidine-3,5-dione]
- RGS4 Hill Slope (RGS4): −1.65
- RGS8 Hill Slope (RGS8): −1.28
- IC50 (RGS8; [1]): 10.3 µM
- IC50 (RGS8; Table 6, FCPIA): 10.3 µM
- Emax at 10 µM (HEK293 cells): 111%

Compound: CC(C)(C)c1ccc(Cn2c(=O)sn(-c3ccccc3)c2=O)cc1 [S35, 2-phenyl-4-(4-t-butylbenzyl)-1,2,4-thiadiazolidine-3,5-dione]
- RGS4 Hill Slope (RGS4): −1.72
- IC50 (RGS8; [1]): > 100 µM
- IC50 (RGS8; Table 6, FCPIA): > 100 µM
- Emax at 10 µM (HEK293 cells): 14.4%

Compound: O=c1sn(-c2cccc(Cl)c2)c(=O)n1Cc1cccc(Cl)c1 [S17, 2-(3-chlorophenyl)-4-(3-chlorobenzyl)-1,2,4-thiadiazolidine-3,5-dione]
- RGS4 Hill Slope (RGS4): −1.55
- RGS8 Hill Slope (RGS8): −1.66
- IC50 (RGS8; [1]): 21.1 µM
- IC50 (RGS8; Table 6, FCPIA): 21.1 µM
- Emax at 10 µM (HEK293 cells): 67.8%

Compound: COc1ccc(Cn2c(=O)sn(-c3ccc(C)cc3)c2=O)cc1 [CCG-203754, 2-p-tolyl-4-(4-methoxybenzyl)-1,2,4-thiadiazolidine-3,5-dione]
- IC50 (RGS8; Table 6, FCPIA): 312 µM

Compound: CC(C)(C)c1ccc(-n2sc(=O)n(Cc3ccc(F)cc3)c2=O)cc1 [S1, 2-(4-t-butylphenyl)-4-(4-fluorobenzyl)-1,2,4-thiadiazolidine-3,5-dione]
- IC50 (RGS8; Table 6, FCPIA): 50.4 µM

Compound: O=c1sn(-c2cccc(C(F)(F)F)c2)c(=O)n1Cc1cccc(Cl)c1 [S18, 2-(3-trifluoromethylphenyl)-4-(3-chlorobenzyl)-1,2,4-thiadiazolidine-3,5-dione]
- IC50 (RGS8; Table 6, FCPIA): 16.2 µM

Compound: Cc1ccc(C2=CC(=O)N(Cc3ccccc3)C2=O)cc1 [compound 15, 1-benzyl-3-p-tolyl-1H-pyrrole-2,5-dione]
- activity at RGS4 (RGS4): Neither 14 or 15 displayed activity at RGS4

Compound: CCn1sc(=O)n(Cc2ccc(F)cc2)c1=O [CCG-203766, 2-ethyl-4-(4-fluorobenzyl)-1,2,4-thiadiazolidine-3,5-dione]
- IC50 (RGS4; Table 6, FCPIA): 0.0223 µM
- IC50 (RGS8; Table 6, FCPIA): 18.7 µM

Compound: O=c1sn(-c2ccccc2)c(=O)n1Cc1ccc(Cl)cc1 [S4, 2-phenyl-4-(4-chlorobenzyl)-1,2,4-thiadiazolidine-3,5-dione]
- IC50 (RGS8; Table 6, FCPIA): 7.5 µM

Compound: Cc1ccc(-n2sc(=O)n(Cc3cccc(C)c3)c2=O)cc1 [CCG-203782, 2-(4-methylphenyl)-4-(3-methylbenzyl)-1,2,4-thiadiazolidine-3,5-dione]
- IC50 (RGS4; Table 6, FCPIA): 0.0145 µM
- IC50 (RGS8; Table 6, FCPIA): 9.9 µM

Compound: Cc1ccc(C2=CC(=O)N(Cc3ccccc3)C2=O)cc1 [CCG-203779]
- IC50 (RGS4; [2]): 93 µM

Compound: Cc1cccc(Cn2c(=O)sn(-c3cccc(C(F)(F)F)c3)c2=O)c1 [S23, 2-(3-trifluoromethylphenyl)-4-(3-methylbenzyl)-1,2,4-thiadiazolidine-3,5-dione]
- RGS8 Hill Slope (RGS8): −1.03
- IC50 (RGS8; [1]): 15.9 µM
- IC50 (RGS8; Table 6, FCPIA): 15.9 µM
- Emax at 10 µM (HEK293 cells): 65.2%

Compound: CCn1sc(=O)n(C)c1=O [CCG-203758, 2-ethyl-4-methyl-1,2,4-thiadiazolidine-3,5-dione]
- IC50 (RGS4; Table 6, FCPIA): 0.0223 µM
- IC50 (RGS8; Table 6, FCPIA): 37 µM

Compound: Cc1ccc(CN2C(=O)CN(c3ccc(C)cc3)C2=O)cc1 [CCG-203778]
- IC50 (RGS4; [2]): > 100 µM
- IC50 (RGS8; [2]): > 100 µM

Compound: Cc1cccc(Cn2c(=O)sn(-c3ccc(C(C)(C)C)cc3)c2=O)c1 [S20, 2-(4-t-butylphenyl)-4-(3-methylbenzyl)-1,2,4-thiadiazolidine-3,5-dione]
- IC50 (RGS8; Table 6, FCPIA): 17.8 µM

Compound: COc1ccc(-n2sc(=O)n(Cc3ccc(C)cc3)c2=O)cc1 [S11, 2-(4-methoxyphenyl)-4-(4-methylbenzyl)-1,2,4-thiadiazolidine-3,5-dione]
- IC50 (RGS8; Table 6, FCPIA): 6.6 µM

Compound: Cc1ccc(CN2C(=O)CN(c3ccc(C)cc3)C2=O)cc1 [compound 14, 3-(4-methylbenzyl)-1-p-tolylimidazolidine-2,4-dione]
- activity at RGS4 (RGS4): Neither 14 or 15 displayed activity at RGS4
- IC50 (RGS4; Table 6, FCPIA): > 100 µM
- IC50 (RGS8; Table 6, FCPIA): > 100 µM

Compound: CC(C)(C)c1ccc(-n2sc(=O)n(Cc3cccc(Cl)c3)c2=O)cc1 [S15, 2-(4-t-butylphenyl)-4-(3-chlorobenzyl)-1,2,4-thiadiazolidine-3,5-dione]
- IC50 (RGS8; Table 6, FCPIA): 32.2 µM
